According to PubChem BioAssay AID435016 (Vanderbilt High Throughput Screening Facility, 2010):

The compounds below were run on HEK293 alpha2C/GIRK, thallium flux fluorescence (assay: alpha2C agonist potency with rauwolscine blockade, dose response, mechanism study for alpha2C adrenergic receptor project, cell-based, thallium flux (AID 435016)). Details: EC50 with rauwolscine antagonist.
`C=CCn1c(=S)[nH]c2ccccc2c1=O` showed an EC50 of 3.19 µM.
For `CCOC(=O)c1ccc(NC(=O)NC(C)C2CCCO2)cc1` (centres undefined), the EC50 was 49.9 µM.
With `O=c1c(-c2ccc3c(c2)OCCO3)c(C(F)(F)F)oc2cc(O)cc(O)c12` the EC50 was 9.18 µM.
For `CCSc1nnc(NC(=O)NC(CC)(C(F)(F)F)C(F)(F)F)s1`, the EC50 was 3.24 µM.
